Among the data in US9000022B2 (Exelixis Patent Company LLC, priority 2005, dated 2015) are IC50 or EC50 (potency, activation or inhibition) values, retold here.

Molecules are shown by their SMILES. A value given as a limit tells only on which side of the number the result lay.

In the assay the test system is LXRα and/or LXRβ. Put plainly: Co-transfection assay (LXRE luciferase reporter, CV-1 cells). Format: cell-based, human. Conditions: tested as described in Example 33; IC50 or EC50 for LXRα and/or LXRβ, isoform not specified; read-out: activity (IC50 or EC50 for LXR). The essentials: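 Luciferase signal measures LXR-RXR transcriptional activation in transiently transfected CV-1 cells carrying human LXRα or LXRβ, RXRα and a single-copy LXRE reporter. Cells were exposed to compound for 20 h at 37 °C with at most 1% DMSO, using 10 μM final for screening. Potency was derived from 4-parameter fits of 8-point, half-log dose curves averaged over ≥3 runs, and efficacy was expressed as % of a reference agonist.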
A general note: A reporter such as luciferase makes a cellular process visible.
Consider `CCS(=O)(=O)c1cccc(-c2ccc(-c3nc(C(C)(C)O)cn3-c3c(Cl)cccc3Cl)cc2)c1` [Example 64, 2-(1-(2,6-dichlorophenyl)-2-(3′-(ethylsulfonyl)biphenyl-4-yl)-1H-imidazol-4-yl)propan-2-ol], for which the IC50 or EC50 (potency, activation or inhibition) was below 1 µM.
In the case of `Cc1cc(-c2cccc(S(C)(=O)=O)c2)ccc1-n1cc(C(=O)NCC(F)(F)F)nc1-c1ccccc1C(C)C` [Example 89], the IC50 or EC50 (potency, activation or inhibition) is below 1 µM.
With `CC(C)(O)c1cn(-c2ccc(-c3ccc(C(N)=O)c(S(C)(=O)=O)c3)cc2Cl)c(-c2c(F)cccc2Cl)n1` [Example 453] the figure was 1 to 10 µM; with `Cc1cc(-c2ccc(CO)c(S(C)(=O)=O)c2)ccc1-n1cc(C(C)(C)O)nc1-c1c(F)cccc1F` [Example 178, 2-(2-(2,6-difluorophenyl)-1-(4′-(hydroxymethyl)-3-methyl-3′-(methylsulfonyl)biphenyl-4-yl)-1H-imidazol-4-yl)propan-2-ol], below 1 µM; with `CCS(=O)(=O)c1cccc(-c2ccc(-n3cc(C(C)(C)O)nc3-c3ccccc3C(C)C)cc2)c1` [Example 96, 2-(1-(3′-(ethylsulfonyl)biphenyl-4-yl)-2-(2-isopropylphenyl)-1H-imidazol-4-yl)propan-2-ol], below 1 µM.
Take `CCS(=O)(=O)c1cccc(-c2ccc(-n3cc(C(C)(C)O)nc3-c3c(C)cccc3Cl)c(C)c2)c1` [Example 192, 2-(2-(2-chloro-6-methylphenyl)-1-(3′-(ethylsulfonyl)-3-methylbiphenyl-4-yl)-1H-imidazol-4-yl)propan-2-ol]: the IC50 or EC50 (potency, activation or inhibition) was below 1 µM.
On to `CCc1ccccc1-c1nc(C(C)(C)O)cn1-c1ccc(-c2cccc(S(C)(=O)=O)c2)cc1` [Example 93], for which the IC50 or EC50 (potency, activation or inhibition) is below 1 µM.
Consider `CC(C)(O)c1cn(-c2ccc(-c3cccc(S(C)(=O)=O)c3)cc2)c(-c2ccccc2F)n1` [Example 380, 2-{2-(2-fluorophenyl)-1-[3′-(methylsulfonyl)biphenyl-4-yl]-1H-imidazol-4-yl}propan-2-ol], for which the IC50 or EC50 (potency, activation or inhibition) was 1 to 10 µM.
Turning to `CC(C)(O)c1cn(Cc2cccc(Cl)c2Cl)c(-c2ccc(-c3cccc(S(C)(=O)=O)c3)cc2)n1` [Example 444, 2-(1-(2,3-dichlorobenzyl)-2-(3′-(methylsulfonyl)biphenyl-4-yl)-1H-imidazol-4-yl)propan-2-ol], the IC50 or EC50 (potency, activation or inhibition) is below 1 µM.
In the case of `CC(C)(O)c1cn(-c2ccc(-c3cccc(S(C)(=O)=O)c3)nc2)c(-c2ccccc2C(F)(F)F)n1` [Example 421, 2-(1-{6-[3-(methyl-sulfonyl)phenyl]pyridin-3-yl}-2-[2-(trifluoromethyl)phenyl]-1H-imidazol-4-yl)propan-2-ol], the IC50 or EC50 (potency, activation or inhibition) lay in the range of 1 to 10 µM.
In the case of `NS(=O)(=O)c1cccc(-c2ccc(-c3[nH]c(C(F)(F)F)nc3-c3ccccc3Cl)cc2)c1` [Example 361, 4′-[4-(2-chlorophenyl)-2-(trifluoro-methyl)-1H-imidazol-5-yl]biphenyl-3-sulfonamide], the IC50 or EC50 (potency, activation or inhibition) is 1 to 10 µM.
Turning to `CC(C)(O)c1cn(-c2ccc(-c3cccc(C(=O)O)c3)cc2)c(-c2ccccc2Cl)n1` [Example 395, 4′-[2-(2-chlorophenyl)-4-(1-hydroxy-1-methylethyl)-1H-imidazol-1-yl]biphenyl-3-carboxylic acid], the IC50 or EC50 (potency, activation or inhibition) is 1 to 10 µM.
`CC(C)(O)c1cn(-c2c(Cl)cccc2Cl)c(-c2ccc(-c3cccc(S(C)(=O)=O)c3)cc2)n1` [Example 63, 2-(1-(2,6-dichlorophenyl)-2-(3′-(methylsulfonyl)biphenyl-4-yl)-1H-imidazol-4-yl)propan-2-ol]: the IC50 or EC50 (potency, activation or inhibition) is below 1 µM.
As to `Cc1cc(-c2ccc(C(=O)O)cc2Cl)ccc1-n1cc(C(C)(C)O)nc1-c1c(Cl)cccc1Cl` [Example 466, 2-chloro-4′-(2-(2,6-dichlorophenyl)-4-(2-hydroxypropan-2-yl)-1H-imidazol-1-yl)-3′-methylbiphenyl-4-carboxylic acid], the IC50 or EC50 (potency, activation or inhibition) was above 10 µM.
To `CC(=O)c1cn(-c2ccc(-c3cccc(S(C)(=O)=O)c3)cc2)c(-c2c(Cl)cccc2Cl)n1` [Example 69, 1-(2-(2,6-dichlorophenyl)-1-(3′-(methylsulfonyl)biphenyl-4-yl)-1H-imidazol-4-yl)ethanone] belongs below 1 µM.
To `CC(C)(O)CNC(=O)c1cn(-c2ccc(-c3cccc(S(C)(=O)=O)c3)cc2Cl)c(-c2c(Cl)cccc2Cl)n1` [Example 472, 1-(3-chloro-3′-(methylsulfonyl)biphenyl-4-yl)-2-(2,6-dichlorophenyl)-N-(2-hydroxy-2-methylpropyl)-1H-imidazole-4-carboxamide] belongs below 1 µM.
Turning to `Cc1cc(-c2ccc(CO)c(S(C)(=O)=O)c2)ccc1-n1cc(C(C)(C)O)nc1-c1cccc(Cl)c1C` [Example 175, 2-(2-(3-chloro-2-methylphenyl)-1-(4′-(hydroxymethyl)-3-methyl-3′-(methylsulfonyl)biphenyl-4-yl)-1H-imidazol-4-yl)propan-2-ol], the IC50 or EC50 (potency, activation or inhibition) was below 1 µM.
Turning to `CCS(=O)(=O)c1cccc(-c2ccc(-n3cc(C(C)(C)O)nc3-c3c(F)cccc3F)c(F)c2)c1` [Example 131, 2-(2-(2,6-difluorophenyl)-1-(3′-(ethylsulfonyl)-3-fluorobiphenyl-4-yl)-1H-imidazol-4-yl)propan-2-ol], the IC50 or EC50 (potency, activation or inhibition) fell in the range of 1 to 10 µM.
For the compound `CC(C)(O)c1cn(-c2ccc(-c3ccc(CO)c(S(C)(=O)=O)c3)cc2F)c(-c2c(F)cccc2Cl)n1` [Example 127, 2-(2-(2-chloro-6-fluorophenyl)-1-(3-fluoro-4′-(hydroxymethyl)-3′-(methylsulfonyl)biphenyl-4-yl)-1H-imidazol-4-yl)propan-2-ol], the IC50 or EC50 (potency, activation or inhibition) fell in the range of 1 to 10 µM.
Consider `CC(C)c1ccccc1-c1nc(C(C)(C)O)cn1-c1ccc(-c2cccc(S(C)(=O)=O)c2)cc1Cl` [Example 161, 2-(1-(3-chloro-3′-(methyl-sulfonyl)biphenyl-4-yl)-2-(2-isopropylphenyl)-1H-imidazol-4-yl)propan-2-ol], for which the IC50 or EC50 (potency, activation or inhibition) was below 1 µM.
On to `CC(C)(O)c1cn(-c2ccc(-c3ccc(CO)c(S(C)(=O)=O)c3)cc2Cl)c(-c2cccc3ccccc23)n1` [Example 32, 2-(1-(3-chloro-4′-(hydroxy-methyl)-3-(methylsulfonyl)biphenyl-4-yl)-2-(naphthalen-1-yl)-1H-imidazol-4-yl)propan-2-ol], for which the IC50 or EC50 (potency, activation or inhibition) was below 1 µM.
Turning to `CN(C)c1cccc(F)c1-c1nc(C(C)(C)O)cn1-c1ccc(-c2cccc(S(C)(=O)=O)c2)cc1` [Example 90, 2-(2-(2-(dimethylamino)-6-fluoro-phenyl)-1-(3′-(methylsulfonyl)biphenyl-4-yl)-1H-imidazol-4-yl)propan-2-ol], the IC50 or EC50 (potency, activation or inhibition) was below 1 µM.
To `CC(C)(O)c1cn(-c2ccc(-c3cccc(S(C)(=O)=O)c3)cc2F)c(-c2cccc(F)c2Cl)n1` [Example 123, 2-(2-(2-chloro-3-fluorophenyl)-1-(3-fluoro-3′-(methylsulfonyl)biphenyl-4-yl)-1H-imidazol-4-yl)propan-2-ol] belongs below 1 µM; to `CCS(=O)(=O)c1cccc(-c2ccc(-c3nc(C(C)(C)O)cn3-c3c(Cl)cccc3Cl)c(Cl)c2)c1` [Example 66, 2-(2-(3-chloro-3′-(ethyl-sulfonyl)biphenyl-4-yl)-1-(2,6-dichlorophenyl)-1H-imidazol-4-yl)propan-2-ol], below 1 µM; to `CC(C)(O)c1cn(-c2ccc(-c3ccc(CO)c(S(C)(=O)=O)c3)cc2Cl)c(-c2cccc(F)c2Cl)n1` [Example 153, 2-(2-(2-chloro-3-fluorophenyl)-1-(3-chloro-4′-(hydroxymethyl)-3′-(methylsulfonyl)biphenyl-4-yl)-1H-imidazol-4-yl)propan-2-ol], below 1 µM.
For the compound `CC(C)(O)c1cn(-c2ccc(-c3ccc(CO)c(S(C)(=O)=O)c3)cc2)c(-c2ccccc2C(F)(F)F)n1` [Example 400, 2-{1-[4′-(hydroxymethyl)-3′-(methylsulfonyl)biphenyl-4-yl]-2-[2-(trifluoromethyl)phenyl]-1H-imidazol-4-yl}propan-2-ol], the IC50 or EC50 (potency, activation or inhibition) was below 1 µM.
On to `CCS(=O)(=O)c1cccc(-c2ccc(-c3nc(C(C)(C)O)cn3-c3ccccc3C(C)C)c(C)c2)c1` [Example 62, 2-(2-(3′-(ethylsulfonyl)-3-methyl-biphenyl-4-yl)-1-(2-isopropylphenyl)-1H-imidazol-4-yl)propan-2-ol], for which the IC50 or EC50 (potency, activation or inhibition) is below 1 µM.
To `CCOC(=O)c1cn(-c2ccc(-c3cccc(S(C)(=O)=O)c3)cc2)c(-c2ccccc2C(F)(F)F)n1` [Example 367] belongs below 1 µM.
With `Cc1cc(-c2cccc(S(C)(=O)=O)c2)ccc1-n1cc(C(=S)NCC(F)(F)F)nc1-c1ccccc1C(C)C` [Example 75, 2-(2-isopropylphenyl)-1-(3-methyl-3′-(methylsulfonyl)biphenyl-4-yl)-N-(2,2,2-trifluoroethyl)-1H-imidazole-4-carbothioamide] the figure was below 1 µM.
Regarding `Cc1cccc(Cl)c1-c1nc(C(C)(C)O)cn1-c1ccc(-c2ccc(CO)c(S(C)(=O)=O)c2)cc1` [Example 102, 2-(2-(2-chloro-6-methylphenyl)-1-(4′-(hydroxymethyl)-3′-(methyl-sulfonyl)biphenyl-4-yl)-1H-imidazol-4-yl)propan-2-ol], the IC50 or EC50 (potency, activation or inhibition) is below 1 µM.
With `COc1ccc(-c2ccc(-n3cc(C(C)(C)O)nc3Cc3cccc(Cl)c3Cl)c(Cl)c2)cc1S(C)(=O)=O` [Example 457, 2-(1-(3-chloro-4′-methoxy-3′-(methyl-sulfonyl)biphenyl-4-yl)-2-(2,3-dichlorobenzyl)-1H-imidazol-4-yl)propan-2-ol] the figure was below 1 µM.
